# Measured values taken from patent US12594276B2, “Inhibitors of human immunodeficiency virus replication” (ViiV Healthcare UK (No.5) Limited, priority 2024, dated 2026).
# Legend:
# [1] = Compound cytotoxicity, XTT-based colorimetric assay; format: cell-based; details: human; uninfected MT2 cells, day 4, XTT; read-out: CC50
# How it was run: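 CC50 derived from XTT colorimetric signal measured on day 4 in MT2 cells that were not infected. All other steps followed the antiviral assay protocol.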
# [2] = system: recombinant NL4-3 virus (nef section replaced with Renilla luciferase gene) in MT-2 cells; assay: HIV cell culture assay (antiviral activity, luciferase readout); format: cell-based; details: Renilla, NL43, MT-2 cells infected for 4-5 days with recombinant NL4-3 Renilla luciferase virus
# How it was run: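 EC50 was derived by median-effect fitting of Renilla luciferase signal from MT-2 cells. These cells were infected for 4–5 days with NL4-3 reporter virus (nef partly replaced by luciferase; made in 293T cells) in the presence of serially diluted compound. Activity was quantified with a live-cell luciferase substrate.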
Compound,CC50 at 4 days [1] [nM],EC50 [2] [nM]
"Cc1cc(C2CCC(F)(F)CC2)nc2nc([C@H](Cc3cc(F)cc(F)c3)NC(=O)Cn3nc(C(F)F)c4c3C(F)(F)[C@@H]3C[C@H]43)n(-c3ccc(Cl)c4c(NS(C)(=O)=O)nn(CCN5CCOC(C)(C)C5)c34)c(=O)c12 (atropisomer, axis not shown; (P)) [Example 479, N-[(1S)-1-[(3P)-3-{4-chloro-1-[2-(2,2-dimethylmorpholin-4-yl)ethyl]-3-methanesulfonamido-1H-indazol-7-yl}-7-(4,4-difluorocyclohexyl)-5-methyl-4-oxo-3H,4H-pyrido[2,3-d]pyrimidin-2-yl]-2-(3,5-difluorophenyl)ethyl]-2-[(2S,4R)-9-(difluoromethyl)-5,5-difluoro-7,8-diazatricyclo[4.3.0.0^2,^4]nona-1(6),8-dien-7-yl]acetamide]",> 20,0.004
"Cc1cc(C2CCC(F)(F)CC2)nc2nc([C@H](Cc3cc(F)cc(F)c3)NC(=O)Cn3nc(C4CC4)c4c3C[C@@H]3C[C@H]43)n(-c3ccc(Cl)c4c(NS(C)(=O)=O)nn(CCN5CCOC(C)(C)C5)c34)c(=O)c12 (atropisomer, axis not shown; (P)) [Example 480, N-[(1S)-1-[(3P)-3-{4-chloro-1-[2-(2,2-dimethylmorpholin-4-yl)ethyl]-3-methanesulfonamido-1H-indazol-7-yl}-7-(4,4-difluorocyclohexyl)-5-methyl-4-oxo-3H,4H-pyrido[2,3-d]pyrimidin-2-yl]-2-(3,5-difluorophenyl)ethyl]-2-[(2S,4S)-9-cyclopropyl-7,8-diazatricyclo[4.3.0.0^2,^4]nona-1(6),8-dien-7-yl]acetamide]",> 20,0.005
"COCCCn1nc(NS(C)(=O)=O)c2c(Cl)ccc(-n3c([C@H](Cc4cc(F)cc(F)c4)NC(=O)Cn4nc(C(F)F)c5c4C(F)(F)[C@@H]4C[C@H]54)nc4nc(C5CCC(F)(F)CC5)cc(NCC5(F)CCOCC5)c4c3=O)c21 (atropisomer, axis not shown; (P)) [Example 484, N-[(1S)-1-[(3P)-3-[4-chloro-3-methanesulfonamido-1-(3-methoxypropyl)-1H-indazol-7-yl]-7-(4,4-difluorocyclohexyl)-5-{[(4-fluorooxan-4-yl)methyl]amino}-4-oxo-3H,4H-pyrido[2,3-d]pyrimidin-2-yl]-2-(3,5-difluorophenyl)ethyl]-2-[(2S,4R)-9-(difluoromethyl)-5,5-difluoro-7,8-diazatricyclo[4.3.0.0^2,^4]nona-1(6),8-dien-7-yl]acetamide]",> 20,0.006
"COCCCn1nc(NS(C)(=O)=O)c2c(Cl)ccc(-n3c([C@H](Cc4cc(F)cc(F)c4)NC(=O)Cn4nc(C(F)F)c5c4C(F)(F)[C@@H]4C[C@H]54)nc4nc(C5CCC(F)(F)CC5)cc(NCC5(C)CCOCC5)c4c3=O)c21 (atropisomer, axis not shown; (P)) [Example 485, N-[(1S)-1-[(3P)-3-[4-chloro-3-methanesulfonamido-1-(3-methoxypropyl)-1H-indazol-7-yl]-7-(4,4-difluorocyclohexyl)-5-{[(4-methyloxan-4-yl)methyl]amino}-4-oxo-3H,4H-pyrido[2,3-d]pyrimidin-2-yl]-2-(3,5-difluorophenyl)ethyl]-2-[(2S,4R)-9-(difluoromethyl)-5,5-difluoro-7,8-diazatricyclo[4.3.0.0^2,^4]nona-1(6),8-dien-7-yl]acetamide]",> 20,0.016
